The target in assay [1] is T1, STAT6 (endogenous, HiBiT-tagged) in HeLa LgBiT clone 4.14 cells (Homo sapiens, UniProt P42226).
T1 construct: These cells express endogenous STAT6; host or cells: HeLa LgBiT clone 4.14
T1 sequence (P42226 1-847): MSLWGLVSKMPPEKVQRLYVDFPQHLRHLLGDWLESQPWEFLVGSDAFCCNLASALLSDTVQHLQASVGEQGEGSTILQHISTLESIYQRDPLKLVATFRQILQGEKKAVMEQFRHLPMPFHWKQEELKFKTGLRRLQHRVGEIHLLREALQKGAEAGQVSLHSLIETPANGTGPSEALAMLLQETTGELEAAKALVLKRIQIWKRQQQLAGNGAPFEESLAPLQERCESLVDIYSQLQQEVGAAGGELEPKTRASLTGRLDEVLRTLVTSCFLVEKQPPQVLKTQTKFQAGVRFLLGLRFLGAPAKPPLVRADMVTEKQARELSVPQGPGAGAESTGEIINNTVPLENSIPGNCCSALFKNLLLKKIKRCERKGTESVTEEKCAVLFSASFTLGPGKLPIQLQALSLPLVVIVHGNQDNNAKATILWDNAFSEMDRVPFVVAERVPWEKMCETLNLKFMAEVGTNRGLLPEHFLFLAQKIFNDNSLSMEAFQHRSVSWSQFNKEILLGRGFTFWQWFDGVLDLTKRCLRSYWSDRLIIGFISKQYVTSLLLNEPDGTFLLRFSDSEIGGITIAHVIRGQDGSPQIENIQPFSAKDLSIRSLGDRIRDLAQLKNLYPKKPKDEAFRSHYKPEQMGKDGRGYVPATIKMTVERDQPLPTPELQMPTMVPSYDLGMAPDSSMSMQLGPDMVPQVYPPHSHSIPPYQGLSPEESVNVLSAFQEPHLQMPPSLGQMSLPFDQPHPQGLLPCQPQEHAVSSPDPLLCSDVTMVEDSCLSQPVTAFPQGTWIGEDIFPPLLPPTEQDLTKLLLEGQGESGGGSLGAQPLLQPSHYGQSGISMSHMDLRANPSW
Kind of assay: STAT6 Degrader Assay (HiBiT based, HeLa LgBiT clone 4.14 cells, luminescence, DC50). It counts as cell-based. Particulars: geometric mean; for DC50: DC50 provided for test compounds with >80% Emax, read-out: STAT6 degradation DC50; for Emax: Emax provided for test compounds with <80% Emax (and 2c15), read-out: STAT6 degradation Emax. The method, boiled down:
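HeLa LgBiT clone 4.14 cells carry CRISPR-inserted HiBiT on endogenous STAT6; 5000 cells/well were exposed to compound for 4-24 h at 37 °C, 5% CO2. Nano-Glo substrate added for 0.5 h; luminescence reflects remaining STAT6, with terfenadine ([…]) wells defining 100% degradation.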
In general terms: With HiBiT, luminescence reflects the tagged protein that the partner subunit can reach.

Assay [2] has as its system Eotaxin-3 (CCL26) release in human whole blood stimulated with IL-4. As to the kind of experiment: Human Whole Blood Eotaxin-3 Assay (IL-4 stimulated, inhibition of eotaxin-3 release). In kind it is cell-based. Particulars: Homo sapiens, EC50 provided for test compounds with >80% Emax, geometric mean across assay runs and batches. Here is the method: This was a human whole blood assay using recombinant human Interleukin 4 to stimulate the blood and measuring the ability of the test compounds to inhibit eotaxin-3 release. The biological activities of the test compounds have been tested in human whole blood stimulated with IL-4 measuring Eotaxin-3 release. The test compounds were added to 384 well clear flat-bottom plate in a 4-fold serial dilution in triplicates using a liquid handler. Human whole blood stabilized in lithium-heparin tubes was added in a volume of 65 uL per well, resulting in a final DMSO concentration of 0.5%. The plate is incubated for 2 h at 37° C. under 5% CO2/95% air. Subsequently, 5 μL of recombinant human IL-4 (R&D Systems, cat #204-ILB) was added to the wells to a final concentration of 400 pM. The plate was incubated for 48 h at 37° C. under 5% CO2/95% air. The plate was spun down for 10 minutes at 500×g and 20 uL supernatant was harvested and transferred to a 384 well v-bottom plate using a liquid handler and stored at −20° C. until further analysis. 10 uL supernatant was used to measure the level of Eotaxin-3 (CCL26) using Human Eotaxin-3 MSD kit from Mesocsale (Cat #K251UEK-4). The assay was performed according to the manufacture instructions.
The data from the human whole blood eotaxin-3 assay is shown below for Examples 2q11, 2110, and 2c49 (where the effect in % is plotted against the test concentration in M on a log-scale).

pEC50: −log10 of the molar value.

The DC50 is the midpoint of the concentration-degradation curve. One may read the pEC50 as the negative decadic logarithm of the EC50, by convention in mol/L. The Emax is the size of the effect at its maximum, as opposed to the concentration needed.

Consider `C[C@@H](c1cc2c(-c3ccc(N)nc3)ccnc2n1C)N1CCC(c2ccc(C(=O)N3CCC(CN4CCN(c5ccc(NC6CCC(=O)NC6=O)cc5F)CC4)CC3)cc2)CC1` (stereo partly drawn) [Example 2c14, 3-((4-(4-((1-(4-(1-((S)-1-(4-(6-aminopyridin-3-yl)-1-methyl-1H-pyrrolo[2,3-b]pyridin-2-yl)ethyl)-piperidin-4-yl)benzoyl)piperidin-4-yl)methyl)piperazin-1-yl)-3-fluorophenyl)amino)piperidine-2,6-dione], for which the half-maximal degradation concentration (DC50) in assay [1] amounted to 6.6 nM. Besides, the pEC50 in assay [2] is 7.19.

Turning to `COCc1nc2ccc(-c3ccnc4c3cc([C@H](C)N3CCC(c5ccc(C(=O)N6CCC(CN7CCN(c8ccc(NC9CCC(=O)NC9=O)cc8F)CC7)CC6)cc5)CC3)n4C)cc2[nH]1` (stereo partly drawn) [Example 2c16, 3-((3-fluoro-4-(4-((1-(4-(1-((S)-1-(4-(2-(methoxymethyl)-1H-benzo[d]imidazol-6-yl)-1-methyl-1H-pyrrolo[2,3-b]pyridin-2-yl)ethyl)piperidin-4-yl)benzoyl)piperidin-4-yl)methyl)piperazin-1-yl)phenyl)amino)piperidine-2,6-dione], the DC50 in assay [1] is 1.2 nM. The pEC50 in assay [2] was 7.65.

As to `CO[C@@H](C)c1nc2cc(-c3ccnc4c3cc([C@H](C)N3CCC(c5ccc(C(=O)N6CCC(CN7CCN(c8ccc(NC9CCC(=O)NC9=O)cc8F)CC7)CC6)cc5)CC3)n4C)ccc2[nH]1` (stereo partly drawn) [Example 2c18, 3-((3-fluoro-4-(4-((1-(4-(1-((S)-1-(4-(2-((S)-1-methoxyethyl)-1H-benzo[d]imidazol-5-yl)-1-methyl-1H-pyrrolo[2,3-b]pyridin-2-yl)ethyl)piperidin-4-yl)benzoyl)piperidin-4-yl)methyl)piperazin-1-yl)phenyl)amino)piperidine-2,6-dione], in assay [1], the DC50 turned out to be 4.8 nM. The pEC50 in assay [2] was 7.41.

Turning to `C[C@@H](c1cc2c(-c3ccc(N)nc3C#N)ccnc2n1C)N1CCC(c2ccc(C(=O)N3CCC(CN4CCN(c5ccc(NC6CCC(=O)NC6=O)cc5F)CC4)CC3)cc2)CC1` (stereo partly drawn) [Example 2c22, 6-amino-3-(2-((1S)-1-(4-(4-(4-((4-(4-((2,6-dioxopiperidin-3-yl)amino)-2-fluorophenyl)-piperazin-1-yl)methyl)piperidine-1-carbonyl)phenyl)piperidin-1-yl)ethyl)-1-methyl-1H-pyrrolo[2,3-b]pyridin-4-yl) picolinonitrile], the DC50 in assay [1] came to 28.2 nM. The pEC50 in assay [2] is 6.82.

As for `C[C@@H](c1cc2c(-c3ccc(N)nc3)ccnc2n1C)N1CCC(c2ccc(C(=O)N3CCC(F)(CN4CCN(c5ccc(NC6CCC(=O)NC6=O)cc5F)CC4)CC3)cc2)CC1` (stereo partly drawn) [Example 2c23, 3-((4-(4-((1-(4-(1-((S)-1-(4-(6-aminopyridin-3-yl)-1-methyl-1H-pyrrolo[2,3-b]pyridin-2-yl)ethyl)-piperidin-4-yl)benzoyl)-4-fluoropiperidin-4-yl)methyl)piperazin-1-yl)-3-fluorophenyl)amino)-piperidine-2,6-dione], in assay [1], the DC50 was 9.6 nM. The molecule also gave a pEC50 in assay [2] of 7.31.

For the molecule `C[C@@H](c1cc2c(-c3cnc(N)c(F)c3)ccnc2n1C)N1CCC(c2ccc(C(=O)N3CCC(CN4CCN(c5ccc(NC6CCC(=O)NC6=O)cc5F)CC4)CC3)cc2)CC1` (stereo partly drawn) [Example 2c24, 3-((4-(4-((1-(4-(1-((S)-1-(4-(6-amino-5-fluoropyridin-3-yl)-1-methyl-1H-pyrrolo[2,3-b]pyridin-2-yl)ethyl)piperidin-4-yl)benzoyl)piperidin-4-yl)methyl)piperazin-1-yl)-3-fluorophenyl)-amino)piperidine-2,6-dione], the DC50 in assay [1] was determined as 44.7 nM. The same molecule gave a pEC50 in assay [2] of 6.10.

On to `C[C@@H](c1cc2c(-c3ccc(NCCO)nc3)ccnc2n1C)N1CCC(c2ccc(C(=O)N3CCC(CN4CCN(c5ccc(NC6CCC(=O)NC6=O)cc5F)CC4)CC3)cc2)CC1` (stereo partly drawn) [Example 2c26, 3-((3-fluoro-4-(4-((1-(4-(1-((S)-1-(4-(6-((2-hydroxyethyl)amino)pyridin-3-yl)-1-methyl-1H-pyrrolo[2,3-b]pyridin-2-yl)ethyl)piperidin-4-yl)benzoyl)piperidin-4-yl)methyl)piperazin-1-yl)phenyl)-amino)piperidine-2,6-dione], for which, in assay [1], the Emax was in the range of 60 to 70%. For the same molecule, in assay [2], the pEC50 is 6.73.

With `C[C@@H](c1cc2c(-c3ccc(N)nn3)ccnc2n1C)N1CCC(c2ccc(C(=O)N3CCC(CN4CCN(c5ccc(NC6CCC(=O)NC6=O)cc5F)CC4)CC3)cc2)CC1` (stereo partly drawn) [Example 2c27, 3-((4-(4-((1-(4-(1-((S)-1-(4-(6-aminopyridazin-3-yl)-1-methyl-1H-pyrrolo[2,3-b]pyridin-2-yl)ethyl)piperidin-4-yl)benzoyl)piperidin-4-yl)methyl)piperazin-1-yl)-3-fluorophenyl)amino)piperidine-2,6-dione], the Emax in assay [1] was 70 to 80%. The molecule further showed a pEC50 in assay [2] of 6.77.

As for `C[C@@H](c1cc2c(-c3ccc4[nH]c(=O)n(C)c4c3)ccnc2n1C)N1CCC(c2ccc(C(=O)N3CCC(CN4CCN(c5ccc(NC6CCC(=O)NC6=O)cc5F)CC4)CC3)cc2)CC1` (stereo partly drawn) [Example 2c28, 3-((3-fluoro-4-(4-((1-(4-(1-((S)-1-(1-methyl-4-(3-methyl-2-oxo-2,3-dihydro-1H-benzo[d]imidazol-5-yl)-1H-pyrrolo[2,3-b]pyridin-2-yl)ethyl)piperidin-4-yl)benzoyl)piperidin-4-yl)methyl)piperazin-1-yl)phenyl)amino)piperidine-2,6-dione], the Emax in assay [1] was 70 to 80%. This molecule also showed a negative-log EC50 (pEC50) in assay [2] of 7.02.

For the molecule `C[C@@H](c1cc2c(-c3ncc(N)cc3F)ccnc2n1C)N1CCC(c2ccc(C(=O)N3CCC(CN4CCN(c5ccc(NC6CCC(=O)NC6=O)cc5F)CC4)CC3)cc2)CC1` (stereo partly drawn) [Example 2c30, 3-((4-(4-((1-(4-(1-((S)-1-(4-(5-amino-3-fluoropyridin-2-yl)-1-methyl-1H-pyrrolo[2,3-b]pyridin-2-yl)ethyl)piperidin-4-yl)benzoyl)piperidin-4-yl)methyl)piperazin-1-yl)-3-fluorophenyl)-amino)piperidine-2,6-dione], the Emax in assay [1] fell in the range of 30 to 40%. Besides, the pEC50 in assay [2] is 6.29.

Consider `COc1nc(N)ccc1-c1ccnc2c1cc([C@H](C)N1CCC(c3ccc(C(=O)N4CCC(CN5CCN(c6ccc(NC7CCC(=O)NC7=O)cc6F)CC5)CC4)cc3)CC1)n2C` (stereo partly drawn) [Example 2c32, 3-((4-(4-((1-(4-(1-((S)-1-(4-(6-amino-2-methoxypyridin-3-yl)-1-methyl-1H-pyrrolo[2,3-b]pyridin-2-yl)ethyl)piperidin-4-yl)benzoyl)piperidin-4-yl)methyl)piperazin-1-yl)-3-fluorophenyl)amino)-piperidine-2,6-dione], for which, in assay [1], the DC50 came out at 16.5 nM. Besides, the negative logarithm of the EC50 (pEC50) in assay [2] was 7.17.

As for `C[C@@H](c1cc2c(-c3ccc(N)cn3)ccnc2n1C)N1CCC(c2ccc(C(=O)N3CCC(CN4CCN(c5ccc(NC6CCC(=O)NC6=O)cc5F)CC4)CC3)cc2)CC1` (stereo partly drawn) [Example 2c33, 3-((4-(4-((1-(4-(1-((S)-1-(4-(5-aminopyridin-2-yl)-1-methyl-1H-pyrrolo[2,3-b]pyridin-2-yl)ethyl)-piperidin-4-yl)benzoyl)piperidin-4-yl)methyl)piperazin-1-yl)-3-fluorophenyl)amino)piperidine-2,6-dione], in assay [1], the DC50 amounted to 22.5 nM. This molecule had a pEC50 in assay [2] of 6.87.

(Values after patent US20260014147A1, “STAT6 DEGRADERS” (Gilead Sciences, Inc., priority 2024, published 2026).)
